Measured values as given in patent US20240245856A1, “Electromechanical Devices for the Burst Release of Indefinitely Stable Dry Powder Drugs” (Massachusetts Institute of Technology, priority 2023, published 2024).
Read-outs that look alike come from different tables or passages of the source.

Assays:
healthy C57/BL6J mice = settings: for time after release at which increase in BG is evident / time after release at which increase in HR is evident: 1 mg pill, 5%-95% Epinephrine-Lactose, subcutaneous, mice
Description: To test this, studies with epinephrine, a naturally occurring circulating neurotransmitter hormone produced by the adrenal medulla, were performed and used as emergency medication in the treatment of anaphylaxis, cardiac arrest, asthma, and hypotension. Epinephrine release targets adrenergic receptors is accompanied by increases in heart rate (HR).
In vivo epinephrine release involved studies on anesthetized adult, male, healthy C57/BL6J mice. Mice were implanted with emergency rescue devices containing epinephrine doses of 1.4 mg/kg via the surgical procedures described above and allowed to recover for a 3-day period. On day 3, mice were carefully anesthetized via the flow of 1% isoflurane, and hair around the dorsal neck region was removed via the application of a depilatory cream (e.g., Nair). A collar-mounted optical probe (e.g., a MouseOx, Starr Life Science, Oakmont, PA) was then used to track heart rate. Additional biomarkers measured by the probe included oxygen saturation (SpO2), pulse-width distension (a measure of blood flow) and breath rate. Animals were monitored until their heart rate reached steady values of 380-400 bpm. A primary transmitter antenna was then brought into close proximity for 2-5 minutes to induce wireless release. Anesthetized animals were then monitored via optical probe measurements for 30 minutes, followed by euthanasia and explantation to evaluate opening and drug dissolution.

[1] = In vivo IVIS fluorescence imaging of release from subcutaneously implanted device; set-up: species or system mice; settings: for biodistribution (IVIS imaging of major organs): organs imaged 40 minutes after subcutaneous release
Description: Imaging studies with fluorescently labeled lyophilized insulin-dye conjugates (Ins-Cy7) validate burst release in vivo, over timescales of about 10 minutes. Devices (e.g., device 100) were implanted in subcutaneous sites, with release apertures 171 facing into muscle beds (the complete surgical implantation procedure is disclosed below).
An equivalent set of studies with glucagon conjugated with cy7 (GCG-cy7) reveal similar release profiles as illustrated in FIG. 5A with strong fluorescence visible within the first 20 minutes following release. […] As shown herein, dry-powder injection directly into subcutaneous sites may function as a mechanism to both maintain long-term drug stability and ensure rapid action following release.
Animals were anesthetized via isoflurane and placed in an in vivo imaging system (IVIS). Baseline fluorescent measurements tuned to emission peaks of cy7 (exposure time 3 seconds, 640 nm<wavelength<840 nm) established pre-release fluorescence profiles. A primary antenna placed in close proximity to the device for about 1 minute induced wireless drug release. Sequential imaging following release at intervals of about 5 minutes then allowed for imaging of fluorescence signals resulting from drug dissolution and diffusion. […]

[2] = cited from earlier work
[3] = system: blood glucose concentrations; settings: administration for acute hypoglycemia; cited from earlier work
[4] = system: C57/BL6 mice with chemically induced diabetes via Streptozotocin (STZ); experiment: Post-fasting glucagon release in diabetic mice (blood glucose); type: in vivo; settings: glucagon release studies in diabetic mice
Description: In an initial set of experiments (results shown in FIG. 5C) mice were fasted to induce mild hypoglycemia baseline BG 113±1.9 mg dl^−1). Wireless release is triggered at time t=0 minutes by placing the awake, freely moving mice in a modified enclosure capable of providing wireless power at 13.56 MHz. Successive measurements then reveal a rapid rise in BG measurements relative to baselines, with a peak value ([…]) occurring at tmax=15 minutes following release. […] Following release, explantation confirmed complete opening and dissolution of the pills (FIG. 22).
0.5 μl volumes of blood were collected via tail-pricks with 25-27G and measured with a commercial handheld blood glucose meter (e.g., a Clarity, BG1000). The upper limit of measurements is 600 mg/dl on these systems and values above this were recorded as 600 mg/dl for analysis. Non-fasting values were recorded for 7-10 days following implantation, after which BG values were recorded following a 2.5 hour fast. Mice were weighed before and after fasting periods. Measurements in experimental groups (O2, Non O2 controls) were recorded in triplicate to account for any variability in readings and averaged.
(i) Post-fasting studies: These studies were performed […] after device implantation in STZ-induced diabetic BL6 mice. […] BG values recorded immediately following release served as t=0 minutes measurements. […]

[5] = HPLC drug dissolution testing of glucagon pills in PBS; type: physicochemical; settings: 37° C., across a range of loading fractions
Source text: Capabilities in closed-loop burst release enabled by wireless communication between commercially available biosensors and emergency rescue devices represent a feature of this technology. One example is the combination of glucagon release with CGM technology for fully closed-loop glucose-responsive hypoglycemic rescue during periods of sleep or hypoglycemia unawareness and in pediatric patients who are unable to self-administer glucagon. […] Benchtop testing in a physiological mimic glucose solution was also performed. […]
Several known concentrations of glucagon (x, unit μM) were tested with the HPLC and the corresponding absorbance peak areas (y, A.U.) were measured. […] This equation yields glucagon concentrations of testing solutions at different time points via measurements of absorbance peak areas. […]
HPLC was performed under the following conditions using an Agilent InfinityLab Poroshell 120 (EC-C18, 4.6 mm×100 mm, 2.7 μm particle size) at 25° C., using 0.1% formic acid in water (solvent A) and acetonitrile (solvent B) at 0.6 ml/min. […] Glucagon UV absorption was monitored at 280 nm with retention time (Rt)=19.2 min.

[6] = 30 minutes after release, 1 mg pill 5%-95% Epinephrine-Lactose, n=3

CNC[C@H](O)c1ccc(O)c(O)c1 [Epinephrine]
time after release at which increase in BG is evident (healthy C57/BL6J mice): ≤ 10 min
time after release at which increase in HR is evident (healthy C57/BL6J mice): ≤ 10 min
time after release at which increase in BG is evident (healthy C57/BL6J mice; listed as epinephrine): ≤ 5 min
time after release at which increase in HR is evident (healthy C57/BL6J mice; listed as epinephrine): ≤ 5 min
ΔBG (healthy C57/BL6J mice; [6]): 66 ± 23 mg/dL
ΔHR (healthy C57/BL6J mice; [6]): 140±33 bpm
correlation of other biomarkers (heart rate, SpO2, pulse-width distension) with release (healthy C57/BL6J mice; pills at 0.3 mg/kg and 1.5 mg/kg versus sham implants): weak correlation

GCG-cy7: glucagon conjugated with cy7; 1-mg glucagon-lactose (4%-96% by weight) pill labeled with fluorescent dye
biodistribution (IVIS imaging of major organs) [1]: confinement to liver site
time after release at which strong fluorescence is visible ([1]; release 2 days after subcutaneous implantation): ≤ 20 min

Ins-Cy7: fluorescently labeled lyophilized insulin-dye conjugates; 1 mg Insulin-cy7-Lactose (4%-96% by weight) pills
fluorescence before wireless release ([1]; implanted sealed device, until release 7 days after implantation): no detectable fluorescence
biodistribution (IVIS imaging of major organs) [1]: confined to the liver
timescale of burst release in vivo ([1]; subcutaneous device, mice, IVIS): about 10 minutes
time after release at which fluorescence is detectable ([1]; subcutaneous site, release on day 7): ≤ 5 min
increase in local fluorescence intensity (ROI) ([1]; within the first 15 minutes following release, n=3 mice): roughly tenfold

glucagon
stability in solution [2]: < 1 days
time to increase in blood glucose concentrations [3]: < 10 min
time to increase in blood glucose after release [4]: < 10 min
dissolution of dry powder drug (HPLC) [5]: rapid dissolution
